Consider two compounds from US7884115B2, “Methods and compositions for the treatment of pain and other neurological conditions” (Allergan, Inc., priority 2004, dated 2011).

In data set [1] the test system is allodynia induced by sulprostone. The data set is described as follows: Mouse sulprostone model of allodynia. The conditions noted are these: for attenuation of the allodynic response (analgesic activity): up to 1 mg/kg, 15 min before sulprostone 300 ng/kg IP, FIG. 3. It counts as in vivo. The protocol:
In this alternative model of chronic pain, allodynia can be induced in mice through intraperitoneal treatment of the animals with 300 ng/kg sulprostone (prostaglandin E2 receptor agonist) in 50% DMSO and in a volume of 5 μl. In this model, the pain response to stroking the flank with a paint brush is scored 8 times over a 35 minute period starting 15 minutes following spinal administration of sulprostone. Minami et al., 57 Pain 217-223 (1994), hereby incorporated by reference herein. Sulprostone treatment alone elicits a score of 12-13 on a 16-point scale.
In either model, the compounds are formulated in d-H2O and given in a volume of 1 ml/kg body weight for intraperitoneal (IP) dosing.
Six mice per group are rendered allodynic by injection of one of the following agents: 300 ng/kg sulprostone in DMSO IP, 100 ng/kg phenylephrine (PE) in dH2O IP, or 100 ng NMDA in DMSO intrathecally (IT). Fifteen minutes before administration of the allodynia-inducing agents, the experimental mice are given 1 mg/kg NB-DNJ. Thirty (30) minutes following administration of NB-DNJ, the allodynic response is monitored as described by brushing the flank of each mouse with a paint brush.
Five to six mice per group are rendered allodynic by injection of 300 ng/kg sulprostone IP. Fifteen minutes before inducement of an allodynic response, experimental mice are given one of the following: 1 mg/kg, 300 μg/kg, and 100 μg/kg NB-DNJ; 1 mg/kg N-butyldeoxymannojirimycin; 1 mg/kg N-5-carboxy-1-deoxynojirimycin; 1 mg/kg N-dodecyldeoxynojirimycin; 1 mg/kg N-ethyl-1-deoxynojirimycin; 1 mg/kg, 300 μg/kg, and 30 μg/kg D-glucaro-delta-lactam; 1 mg/kg 4-O-a-D-glucopyranosylmoranoline; 1 mg/kg nojirimycin bisulfite; 1 mg/kg nojirimycin-1-sulfonic acid; 1 mg/kg N-(n-nonyl)deoxynojirimycin; 1 mg/kg N(7-oxadecyl)deoxynojirimycin; and 1 mg/kg N-(7-oxa-9,9,9-trifluorononyl)deoxynojirimycin. The DMSO vehicle and sulprostone alone are used as controls.
Starting thirty (30) minutes following administration of NB-DNJ, the allodynic response of each mouse was monitored by brushing the flank of the mouse with a paint brush.
Five to six mice per group are rendered allodynic by injection of one of the following: 300 ng/kg sulprostone IP, 100 ng/kg phenylephrine (PE) IP, or 100 ng NMDA intrathecally (IT). Fifteen minutes prior to the induction of allodynia, the mice are given D-glucaro-delta-lactam IP at […], or 1 mg/kg. PE or NMDA-treated mice are given 1 mg/kg D-glucaro-delta-lactam IP.

The test system of data set [2] is primary rat brain cortical neurons treated with kainate. Description: Kainate-induced excitotoxicity in primary cortical neurons (LDH release). It counts as cell-based. The protocol: (§1) Primary rat brain cortical neurons were cultured as follows. In brief, rat cerebral cortices were removed from brains of the 16 day-old-fetal rats. The neocortices were gently triturated and plated on 24 well plates (300,000 viable cells/cm2) in plating Modified Eagle's Medium (MEM) supplemented with 10% horse serum, 10% fetal calf serum and 2 mM L-glutamine. Cultures were maintained at 37 C in a humidified 5% CO2 atmosphere.
(§2) After 4 days' growth (DIV 4), half of the medium was replaced by a medium identical to the plating medium but lacking calf serum. At DIV4, 10 μM 5-fluoro-2-deoxyuridine was included to each well to halt overgrowth of glia. Mixed cultures of neurons and glia were then fed at DIV7 and DIV11 with MEM plus 5% horse serum previously conditioned by growth with cortical astrocytes for 24 h.
Excitotoxicity was induced in these cells by addition of 50 μM kainate or 20 μM N-methyl-D-aspartate plus 10 μM D-serine to each well.
Under the experimental conditions used, i.e. after 6 hours addition of excitotoxic agent, 40% toxicity is generally observed and measured by determination of the amount of lactate dehydrogenase (LDH) released into the medium following membrane degradation. Such assay methods are well-known; a kit for conducting a homogeneous form of the LDH assay format is sold by Promega under the name CytoTox ONE® Homogenous Membrane Integrity Assay. Overall cell injury was assessed microscopically under phase-contrast optics or by measuring amount of LDH released into the bathing medium 24 hr after neurotoxic insults (see, e.g., Koh and Choi, J. NEUROSCI. METHODS 20: 83-90, 1987), hereby incorporated by reference herein.
[…] The final results are normalized optical density (OD) values (treated cells/untreated control cells), where a value of 1 represents 100% neuronal survival and a value of 0.6 represents 60% survival.

In data set [3] the test system is primary rat brain cortical neurons treated with NMDA plus D-serine. The data set is described as follows: NMDA/serine-induced excitotoxicity in primary cortical neurons (LDH release). It is filed as cell-based. The conditions noted are these: 20 μM NMDA plus 10 μM D-serine, 3 h or 16 h preincubation; FIGS. 8A and 8B. The protocol: as §1
After 4 days' growth (DIV 4), half of the medium was replaced by a medium identical to the plating medium but lacking calf serum. At DIV4, 10 μM 5-fluoro-2-deoxyuridine was included to each well to halt overgrowth of glia. Mixed cultures of neurons and glia were then fed at DIV7 and DIV11 with MEM plus 5% horse serum previously conditioned by growth with cortical astrocytes for 24 h. […]
(§3) Under the experimental conditions used, i.e. after 6 hours addition of excitotoxic agent, 40% toxicity is generally observed and measured by determination of the amount of lactate dehydrogenase (LDH) released into the medium following membrane degradation. […] Overall cell injury was assessed microscopically under phase-contrast optics or by measuring amount of LDH released into the bathing medium 24 hr after neurotoxic insults (see, e.g., Koh and Choi, J. NEUROSCI. METHODS 20: 83-90, 1987), hereby incorporated by reference herein. […]

Data set [4] deals with primary rat brain cortical neurons. The data set is described as follows: Intrinsic cytotoxicity in neuronal cultures. It counts as cell-based. The protocol: as §1, §2, §3
The conditions of data set [5]: cited from earlier work.

“Also recorded” adds a separate entry of the source.

Take `CCCCN1C[C@H](O)[C@@H](O)[C@H](O)[C@H]1CO` [NB-DNJ, N-butyl-1-deoxy-nojirimycin]: in data set [1] (1 mg/kg given 15 min before sulprostone 300 ng/kg IP, FIG. 1), the “reversal of the allodynic response” value is “significant reversal”. The “attenuation of the allodynic response (analgesic activity)” value in data set [1] is listed as “attenuate the allodynic response”. In addition, in data set [2] (50 μM kainate, compound added without pre-incubation, FIG. 7A), the “attenuation of kainate-induced excitotoxicity” value is listed as “attenuation of kainate-induced excitotoxicity; also recorded: active without any preincubation”. The neuronal death entry in data set [2] (kainate-induced toxicity, various concentrations) is given as “reduced neuronal death in a dose-dependent manner”; in data set [3] it was “reduced neuronal death in a dose-dependent manner”. In addition, the intrinsic cytotoxicity result in data set [4] is given as “do not show any significant intrinsic cytotoxicity”. Also, the aqueous solubility result in data set [5] is reported as “greater than 1000 mg/ml”.
Regarding `O=C(O)[C@H]1NC(=O)[C@H](O)[C@@H](O)[C@@H]1O` [D-glucaro-delta-lactam], the “attenuation of the allodynic response (analgesic activity)” value in data set [1] was “attenuate the allodynic response”.
